{"source": "patent US20120107323A1", "about": "“KINASE PROTEIN BINDING INHIBITORS” (University of Florida, priority 2009, published 2012)", "key": {"C8161 melanoma cells": {"test_system": "C8161 melanoma cells", "assay": "CFSE cell proliferation assay, C8161", "type": "cell-based, human", "settings": "effect greater than in A375", "description": "For staining with CFSE (Molecular Probes, Eugene, Oreg.)., 1×10^7/ml cells were suspended in PBS and incubated at 37° C. for 5 min with the 10 μM of CFSE. Stained cells were cultured with medium alone or with inhibitor for 24, 48, and 72 hours, fixed and analyzed by a FACS Calibur cytometer (Becton Dickinson, San Jose, Calif.)."}, "[1]": {"test_system": "Panc-1 orthotopic xenografts", "assay": "Orthotopic pancreatic xenograft, Panc-1", "type": "in vivo, mice", "set-up": "dose or concentration left out as unconfirmed", "settings": "Panc-1, 21 days", "from_the_text": "For the orthotopic model of pancreatic cancer, the University of Florida IACUC approved the following protocol (IACUC Study #2000801506). The pancreatic cancer cell lines, Mia paca-2 and Panc-1 cells were stably transfected using luciferase-RFP (red fluorescent protein) reporter gene for in vivo imaging of the xenografts. Following expansion and sorting of RFP positive cells, cells were expanded in culture and 5×10^6 tumor cells were implanted into the pancreas of 20 mice. For intra-pancreatic implantation of cells, mice were anesthetized with Isoflurane using the ACS provided and maintained rodent anesthesia machine. Under sterille surgical conditions, via 1.0 cm incision of the skin, abdominal wall and peritonium, the spleen was retracted and cells were injected in […] into the tail of the pancreas using a 29-gauge needle. The abdominal wall and peritoneum was sutured using 5.0 absorbable surgical sutures and the skin was closed with medical glue (dermabond). Postoperative analgesia was 0.05 mg/kg of buprenorphine subcutaneously per 8-12 hours postoperatively.\nMice were hand restrained prior to intraperitoneal injections. Mice were euthanized 6 weeks after tumor innoculation and tumor and tissue collected. As described below, mice were imaged weekly with the IVIS lumina imager and tumor size was estimated by the bioluminescent signal. […]"}, "[2]": {"test_system": "TE3 esophageal cancer cells", "assay": "Cell viability (MTT), TE3", "type": "cell-based", "settings": "TE3, 72 hours; read-out: IC50 of INT2-31, cell viability", "description": "(§1) Cell viability (MTT) and CFSE Proliferation assay: Cells were plated in 96-well plates and let adhere overnight. After cell treatment, cell viability was measured by 3-(4,5-dimethylthiazol-2-yl)-2,5-diphenyl tetrazolium bromide (MTT) assay (CellTiter 96® Aqueous, Promega, Madison, Wis.).\nCell viability and detachment assays: After cells were treated with siRNA transfection, cell viability was measured by 3-(4,5-dimethylthiazol2-yl)-2,5-diphenyl tetrazolium bromide (MTT) assay (CellTiter 96® AQueous, Promega, Madison, Wis.). Briefly, 20 μl of the tetrazolium compound was added to each well. The cells were then incubated at 37° C. for 1 h. The plate was read at 490 nm with a plate reader to determine the viability. In detachment assays, detached and attached cells were harvested separately and counted in a hemocytometer. The percentage of detachment was calculated by dividing the number of detached cells by the total number of cells. Apoptosis assays: After treatment, attached and detached cells were collected, counted and prepared for terminal uridine deoxynucleotidyl transferase (TUNEL) assay by utilizing an APO-BRDU kit (BD Pharmingen, San Diego, Calif.) according to the manufacturer's instructions. Stained cells were analyzed with a fluorescence-activated cell sorting-Calibur flow cytometer (BD Biosciences). […] Apoptotic cells were also analyzed by Hoechst staining. […]"}, "[3]": {"test_system": "Panc-1 pancreatic cancer cells", "assay": "Cell viability (MTT), Panc-1", "type": "cell-based", "description": "as §1\nCell viability and detachment assays: After cells were treated with siRNA transfection, cell viability was measured by 3-(4,5-dimethylthiazol2-yl)-2,5-diphenyl tetrazolium bromide (MTT) assay (CellTiter 96® AQueous, Promega, Madison, Wis.). Briefly, 20 μl of the tetrazolium compound was added to each well. The cells were then incubated at 37° C. for 1 h. The plate was read at 490 nm with a plate reader to determine the viability. In detachment assays, detached and attached cells were harvested separately and counted in a hemocytometer. The percentage of detachment was calculated by dividing the number of detached cells by the total number of cells. Apoptosis assays: After treatment, attached and detached cells were collected, counted and prepared for terminal uridine deoxynucleotidyl transferase (TUNEL) assay by utilizing an APO-BRDU kit (BD Pharmingen, San Diego, Calif.) according to the manufacturer's instructions. Stained cells were analyzed with a fluorescence-activated cell sorting-Calibur flow cytometer (BD Biosciences). Calculation of the percentage of apoptotic cells in the sample was completed with CellQuest software (BD Biosciences). Apoptotic cells were also analyzed by Hoechst staining. Hoechst 33342 ([…]) was added to the fixed cells and the specimens were mounted on glass coverslips. The slides were viewed under the Zeiss microscope for apoptotic nuclei. The percent of apoptotic cells was calculated as the ratio of apoptotic cells to total number of cells.\nIn addition, the effect of INT2-31 on cell viability of esophageal, pancreatic and breast cancer cell lines was analyzed and the IC50 value for each cell line was determined, as shown in Table 1. […] Similar to melanoma results, INT2-31 inhibits viability more in cancer cells compared to normal cells. Sensitivity of the cells to INT2-31 varied and directly correlated to the FAK and IGF-1R expression level of the cells."}}}
{"smiles": "CSc1ncnc2c1ccn2C1O[C@H](COP(=O)(O)O)[C@@H](O)[C@H]1O", "note": "(stereo partly drawn) [INT2-31, 4-(Methylthio)-7-(5-O-phosphono-D-ribofuranosyl)-{7H-Pyrrolo[2,3-d]pyrimidine}]", "values": [{"measurement": "cell proliferation (CSFE)", "setting": "C8161 melanoma cells", "result": "inhibited cell proliferation"}, {"measurement": "growth of the orthotopic pancreatic xenografts", "setting": "[1]", "result": "sufficiently reduced the growth"}, {"measurement": "IC50", "setting": "[2]", "result": 5.6, "unit": "µM"}, {"measurement": "IC50", "setting": "[3]; Homo sapiens, Panc-1, 72 hours, read-out: IC50 of INT2-31, cell viability", "result": 6.7, "unit": "µM"}, {"measurement": "cell viability (in words)", "setting": "[3]; Panc-1, 72 hours", "result": "inhibits the cell viability"}, {"measurement": "effect of combination with 5-FU on cell viability", "setting": "[3]; pancreatic cancer cells, 1 μM INT2-31", "result": "synergistic effects"}, {"measurement": "effect of combination with gemcitabine on cell viability", "setting": "[3]; pancreatic cancer cells, data not shown", "result": "only additive"}]}
